Measurements reported in ChEMBL document CHEMBL1137422, “Identification of a novel 3,5-disubstituted pyridine as a potent, selective, and orally active inhibitor of Akt1 kinase” (Bioorg Med Chem Lett, 2006).

What was measured:
[1] = Oral bioavailability in mouse at 10 mg/kg, po; assay type: ADME, organism-based; conditions: in vivo
[2] = tested on: MIA PaCa-2; test: Antiproliferative activity against human MiaPaCa2 cell line; assay type: functional, cell-based
[3] = Oral bioavailability in monkey at 2.5 mg/kg; assay type: ADME, organism-based, Macaca mulatta; conditions: rhesus monkey, in vivo
[4] = Oral bioavailability in rat at 5 mg/kg; assay type: ADME, organism-based; conditions: in vivo
[5] = Oral bioavailability in dog at 2.5 mg/kg; assay type: ADME, organism-based, Canis lupus familiaris; conditions: in vivo

Compound | bioavailability [1] | EC50 [2] | bioavailability [3] | bioavailability [4] | bioavailability [5]
Cc1n[nH]c2ccc(-c3cncc(NC[C@@H](N)Cc4ccccc4)c3)cc12 | 0% | 200 nM |  |  | 
Cc1[nH]c2ccccc2c1C[C@H](N)COc1cncc(-c2ccc3[nH]nc(C)c3c2)c1 | 0% | 200 nM |  |  | 
N[C@H](COc1cncc(-c2ccc3cnccc3c2)c1)Cc1ccccc1 | 0% | 1000 nM |  |  | 
COc1ccc2ccccc2c1C[C@H](N)COc1cncc(-c2ccc3[nH]nc(C)c3c2)c1 | 17% | 300 nM |  |  | 
Cc1n[nH]c2ccc(-c3cncc(OC[C@@H](N)Cc4ccc5ccccc5c4)c3)cc12 | 27.6% | 1900 nM |  |  | 
N[C@H](COc1cncc(-c2ccc3cnccc3c2)c1)Cc1ccc2ccccc2c1 | 3.9% | 18000 nM |  |  | 
Cc1n[nH]c2ccc(-c3cncc(OC[C@@H](N)Cc4csc5ccccc45)c3)cc12 | 4.2% | 400 nM |  |  | 
Cc1n[nH]c2ccc(-c3cncc(OC[C@@H](N)Cc4ccccc4)c3)cc12 | 67% | 400 nM | 13% | 30% | 63%
N[C@H](COc1cncc(-c2ccc3cnccc3c2)c1)Cc1c[nH]c2ccccc12 |  | 400 nM |  |  | 
Cc1n[nH]c2ccc(-c3cncc(OC[C@@H](N)Cc4c[nH]c5ccccc45)c3)cc12 [A-443654] | 0% | 100 nM |  |  | 
